The source of these data is US11040028B2, “Penicinotam derivative, preparation method and use thereof” (OCEAN UNIVERSITY OF CHINA, priority 2017, dated 2021).

Holding throughout (type): cell-based
The test system of assay [1] is BHK-21 cells. In words: Anti-fibrosis activity test: inhibition of BHK-21 cell proliferation (CCK-8). To be noted: Mesocricetus auratus, BHK-21, 48 h, CCK-8, 48 hours after administration. In a few lines:
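Cells seeded at 2×10^4 cells/mL, allowed to adhere 24 hours, then exposed to graded compound concentrations in triplicate for 48 hours at 37° C, 5% CO2. CCK-8 added for 2 hours, absorbance read at 450 nm; inhibition versus blank control used to derive IC50. Pirfenidone served as positive control.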

In assay [2] the test system is human lung fibroblasts HFL1. Nature of the assay: Anti-fibrosis activity test: inhibition of proliferation of human lung fibroblasts HFL1 (CCK-8). Conditions: Homo sapiens, HFL1, 48 h, human lung fibroblasts HFL1, CCK-8, 48 hours. An outline of the steps: (§1)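 IC50 values derive from CCK-8 absorbance (450 nm, 2 h reagent incubation) measured after a 48 h exposure to test compounds. Before dosing, cells plated at 2×10^4 cells/mL had attached for 24 h under 5% CO2 at 37° C; triplicate wells per concentration.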

In assay [3] the test system is human hepatic stellate cells LX-2. Nature of the assay: Anti-fibrosis activity test: inhibition of proliferation of human hepatic stellate cells LX-2 (CCK-8). To be noted: Homo sapiens, 48 h, human hepatic stellate cells LX-2, CCK-8, 48 hours. An outline of the steps: as §1
Assay [4] deals with human fibrosarcoma cells HT-1080. Nature of the assay: Anti-fibrosis activity test: inhibition of proliferation of human fibrosarcoma cells HT-1080 (CCK-8). To be noted: Homo sapiens, HT-1080, 48 h, human fibrosarcoma cells HT-1080, CCK-8, 48 hours. In a few lines: as §1
The test system of assay [5] is human dermal fibroblasts CCC-ESF-1. Nature of the assay: Anti-fibrosis activity test: inhibition of proliferation of human dermal fibroblasts CCC-ESF-1 (CCK-8). To be noted: Fibroblast; human dermal fibroblasts CCC-ESF-1, CCK-8, 48 hours. In a few lines: as §1
The test system of assay [6] is human embryonic lung fibroblast IMR-90. Nature of the assay: Anti-fibrosis activity test: inhibition of proliferation of human embryonic lung fibroblast IMR-90 (CCK-8). Conditions: human embryonic lung fibroblast IMR-90, CCK-8, 48 hours. In a few lines: as §1
In assay [7] the test system is cardiac fibroblast RAT-iCell-C002. In words: Anti-fibrosis activity test: inhibition of proliferation of cardiac fibroblast RAT-iCell-C002 (CCK-8). To be noted: Cardiac fibroblast, 48 h, cardiac fibroblast RAT-iCell-C002, CCK-8, 48 hours. An outline of the steps: as §1
For assay [8], the system named is NF-κB. In words: Immunological activity test: inhibition of NF-κB activity. Conditions: initial concentration of 30 μM; a/b isomers given as first/second symbol; read-out: IC50 (μM), inhibitory activity against NF-κB. An outline of the steps: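 Parthenolide as positive control; starting test concentration 30 μM; inhibition of NF-κB activity analysed further to yield IC50.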

Assay [9] has as its system mouse macrophages (RAW264.7). In words: Lipopolysaccharide-induced NO secretion in macrophages (Griess). To be noted: Mus musculus, RAW264.7, 24 h, RAW264.7, LPS 1 μg/ml, a/b isomers given as first/second symbol, read-out: IC50 (μM), inhibition of lipopolysaccharide-induced NO secretion in macrophages. An outline of the steps: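 Percent inhibition of NO release was measured by Griess absorbance at 548 nm in supernatants. Cells were mouse RAW264.7 macrophages in 10% FBS DMEM, treated with graded compound concentrations and activated by LPS (1 μg/ml) for 24 h.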
On the technique in general: Nitrite, measured by Griess reagent, commonly stands in for NO production.

Molecules are shown by their SMILES.

Broadly, the IC50 is the concentration that gives 50% inhibition. `O=C1c2c(nc3cccc(Cl)c3c2OCc2ccc(Cl)cc2)-c2cccn21` [Compound 477b, 8-chloro-9-((4-chlorobenzyl)oxy)-10H-pyrrolizino[1,2-b]quinolin-10-one]: the 50% inhibitory concentration (IC50) in assay [1], in [2], in [3], in assay [4], in assay [5] and in [6] was 0.05 to 5 mM throughout. Besides, the IC50 lay in the range of 0.05 to 5 mM in assay [7], 10 to 50 µM in [8] and 1 to 10 µM in assay [9].
In the case of `O=C1c2c(n(Cc3cccc(Cl)c3)c3cccc(Cl)c3c2=O)-c2cccn21` [Compound 478a, 8-Chloro-4-(3-chlorobenzyl)-9H-pyrrolizino[1,2-b]quinoline-9,10(4H)-dione], the IC50 in assay [1], in [2], in assay [3], in assay [4], in [5] and in assay [6] was 0.05 to 5 mM each time. Further, the figures for the IC50 in [7], in assay [8] and in assay [9] were 0.05 to 5 mM, 10 to 50 µM and 0.1 to 1 µM, respectively.
With `O=C1c2c(nc3cccc(Cl)c3c2OCc2cccc(Cl)c2)-c2cccn21` [Compound 478b, 8-chloro-9-((3-chlorobenzyl)oxy)-10H-pyrrolizino[1,2-b]quinolin-10-one], the IC50 in [1], in [2], in assay [3], in [4], in assay [5] and in assay [6] was 0.05 to 5 mM in each case. The IC50 in assay [7] lay within 0.05 to 5 mM; in assay [8] it was 10 to 50 µM; in assay [9], 1 to 10 µM.
As for `O=C1c2c([nH]c3cccc(C(F)(F)F)c3c2=O)-c2cccn21` [Compound 479a, 8-(Trifluoromethyl)-9H-pyrrolizino[1,2-b]quinoline-9,10(4H)-dione], the IC50 in assay [1] was under 0.05 mM; in assay [2], 0.05 to 5 mM; in assay [3], 0.05 to 5 mM; in [4], 0.05 to 5 mM; in assay [5], 0.05 to 5 mM; in assay [6], 0.05 to 5 mM. For the same molecule, the IC50 in assay [7] was 0.05 to 5 mM; in assay [8] it was 10 to 50 µM; in [9], 10 to 50 µM.
On to `O=C1c2c(nc3cccc(C(F)(F)F)c3c2O)-c2cccn21` [Compound 479b, 9-hydroxy-8-(trifluoromethyl)-10H-pyrrolizino[1,2-b]quinolin-10-one], for which the IC50 in assay [1], in assay [2], in [3], in assay [4], in [5] and in [6] was 0.05 to 5 mM each time. Moreover, the IC50 in assay [7] fell in the range of 0.05 to 5 mM; in [8], 1 to 10 µM; in [9] it was 1 to 10 µM.
Regarding `O=C1c2c([nH]c3cc(F)ccc3c2=O)-c2cccn21` [Compound 488a, 6-Fluoro-9H-pyrrolizino[1,2-b]quinoline-9,10(4H)-dione], the IC50 in [1] was 0.05 to 5 mM; in assay [2], 0.05 to 5 mM; in assay [3], under 0.05 mM; in assay [4] it was 0.05 to 5 mM; in assay [5], 0.05 to 5 mM; in assay [6], 0.05 to 5 mM. For the same molecule, the IC50 in assay [7] lay within 0.05 to 5 mM; in [8], 1 to 10 µM; in assay [9] it was 10 to 50 µM.
As for `O=C1c2c(nc3cc(F)ccc3c2O)-c2cccn21` [Compound 488b, 6-fluoro-9-hydroxy-10H-pyrrolizino[1,2-b]quinolin-10-one], the IC50 in assay [1], in assay [2], in assay [3], in [4], in [5] and in [6] was 0.05 to 5 mM throughout. The results for the IC50 in [7], in [8] and in assay [9] were 0.05 to 5 mM, 10 to 50 µM and 1 to 10 µM, respectively.
For the molecule `O=C1c2c(n(Cc3ccc(Cl)cc3)c3cc(F)ccc3c2=O)-c2cccn21` [Compound 496a, 4-(4-Chlorobenzyl)-6-fluoro-9H-pyrrolizino[1,2-b]quinoline-9,10(4H)-dione], the IC50 in assay [1], in assay [2], in assay [3], in assay [4], in assay [5] and in assay [6] was 0.05 to 5 mM each time. The IC50 in assay [7] lay in the range of 0.05 to 5 mM; in assay [8], 10 to 50 µM; in assay [9], 10 to 50 µM.
In the case of `O=C1c2c(nc3cc(F)ccc3c2OCc2ccc(Cl)cc2)-c2cccn21` [Compound 496b, 9-((4-chlorobenzyl)oxy)-6-fluoro-10H-pyrrolizino[1,2-b]quinolin-10-one], the IC50 in assay [1], in assay [2], in assay [3], in assay [4], in [5] and in [6] was 0.05 to 5 mM each time. Also, the IC50 fell in the range of 0.05 to 5 mM in [7], 10 to 50 µM in [8] and 1 to 10 µM in assay [9].
As to `N#Cc1ccc2c(=O)c3c([nH]c2c1)-c1cccn1C3=O` [Compound 512a, 9,10-Dioxo-4,10-dihydro-9H-pyrrolizino[1,2-b]quinoline-6-carbonitrile], the IC50 in [1] was 0.05 to 5 mM; in assay [2], 0.05 to 5 mM; in assay [3], under 0.05 mM; in [4] it was 0.05 to 5 mM; in [5] it was 0.05 to 5 mM; in assay [6], 0.05 to 5 mM. Further, the results for the half-maximal inhibitory concentration (IC50) in assay [7], in assay [8] and in [9] were 0.05 to 5 mM, 1 to 10 µM and 1 to 10 µM, respectively.
In the case of `N#Cc1ccc2c(O)c3c(nc2c1)-c1cccn1C3=O` [Compound 512b, 9-hydroxy-10-oxo-10H-pyrrolizino[1,2-b]quinoline-6-carbonitrile], the IC50 in assay [1] is 0.05 to 5 mM; in [2], 0.05 to 5 mM; in [3], under 0.05 mM; in assay [4], 0.05 to 5 mM; in assay [5], 0.05 to 5 mM; in assay [6], 0.05 to 5 mM. The results for the half-maximal inhibitory concentration (IC50) in [7], in assay [8] and in assay [9] were 0.05 to 5 mM, 10 to 50 µM and 1 to 10 µM, respectively.
Consider `O=C1c2c([nH]c3cc(O)ccc3c2=O)-c2cccn21` [Compound 524a, 6-Hydroxy-9H-pyrrolizino[1,2-b]quinoline-9,10(4H)-dione], for which the IC50 in assay [1], in [2], in [3], in [4], in assay [5] and in assay [6] was 0.05 to 5 mM each time. Moreover, the values for the IC50 in [7], in [8] and in assay [9] were 0.05 to 5 mM, 0.1 to 1 µM and 0.1 to 1 µM, respectively.
For the molecule `O=C1c2c(nc3cc(O)ccc3c2O)-c2cccn21` [Compound 524b, 6,9-dihydroxy-10H-pyrrolizino[1,2-b]quinolin-10-one], the IC50 in assay [1], in [2], in assay [3], in assay [4], in [5] and in [6] was 0.05 to 5 mM throughout. The IC50 in assay [7] is 0.05 to 5 mM; in [8] it was 10 to 50 µM; in assay [9], 1 to 10 µM.
For the molecule `O=C1c2c([nH]c3cc(C(F)(F)F)ccc3c2=O)-c2cccn21` [Compound 536a, 6-(Trifluoromethyl)-9H-pyrrolizino[1,2-b]quinoline-9,10(4H)-dione], the IC50 in assay [1], in [2], in assay [3], in assay [4], in assay [5] and in [6] was 0.05 to 5 mM each time. Also, the concentration for half-maximal inhibition (IC50) in assay [7] fell in the range of 0.05 to 5 mM; in assay [8] it was 1 to 10 µM; in assay [9], 1 to 10 µM.
Take `O=C1c2c(nc3cc(C(F)(F)F)ccc3c2O)-c2cccn21` [Compound 536b, 9-hydroxy-6-(trifluoromethyl)-10H-pyrrolizino[1,2-b]quinolin-10-one]: the IC50 in assay [1], in assay [2], in assay [3], in [4], in [5] and in assay [6] was 0.05 to 5 mM in each case. The values for the IC50 in assay [7], in [8] and in assay [9] were 0.05 to 5 mM, 1 to 10 µM and 1 to 10 µM, respectively.
As to `O=C1c2c([nH]c3cc(OC(F)(F)F)ccc3c2=O)-c2cccn21` [Compound 548a, 6-(Trifluoromethoxy)-9H-pyrrolizino[1,2-b]quinoline-9,10(4H)-dione], the IC50 in assay [1] was 0.05 to 5 mM; in assay [2], 0.05 to 5 mM; in assay [3], under 0.05 mM; in assay [4] it was 0.05 to 5 mM; in assay [5] it was 0.05 to 5 mM; in [6], 0.05 to 5 mM. For the same molecule, the IC50 in [7] fell in the range of 0.05 to 5 mM; in assay [8], 0.1 to 1 µM; in [9] it was 10 to 50 µM.
